From patent US4923963A, “Bradykinin antagonist peptides” (Nova Technology Limited Partnership, priority 1987, dated 1990)
Where two headings read alike, the source gives them in different places. Square brackets hold non-standard residues; d marks the D form. Peptide text beside a SMILES is read from it. d2Nal = N[C@H](Cc1ccc2ccccc2c1)C(=O)O; Hyp = O=C(O)[C@@H]1C[C@@H](O)CN1; 2Thi = N[C@@H](Cc1cccs1)C(=O)O

Key:
isolated rat uterus = assay type: cell-based
Experimental: The bradykinin antagonists were assayed on isolated rat uterus in natural or induced estrus and on guinea pig ileum, according to the commonly accepted assay methods for bradykinin and related kinins as described by Trautschold (Handbook of Expt. Pharmacol. Vol 25, Springer Verlag, pp. 53-55, 1970) for inhibition of the myotropic activity of bradykinin. The inhibition potencies, as determined according to the commonly accepted manner described by Schild for antagonists of biologically active compounds (Br. J. Pharmacol. 2:189, 1947), and expressed as pA2 values are determined on isolated rat uterus (RUT) and isolated guinea pig ileum (GPI). In the assays, a dose-response curve is determined for the reference substance bradykinin. The dose of bradykinin which produced a half maximal contraction of tissue is the ED50 dose. An amount of bradykinin equivalent to twice the ED50 dose is administered to the tissue 30 seconds after the start of incubation of the tissue with a dose of antagonist. Doses of antagonist are increased in this protocol until pre-incubation with a dose of antagonist reduces the contraction in response to the double ED50 dose of bradykinin to response of a single ED50 dose of bradykinin. The pA2 value represents the negative logarithm of the molar concentration of antagonist necessary to reduce the response of a double ED50 dose of bradykinin to that of an ED50 dose. One unit of pA2 value represents an order of magnitude change in potency. For comparison, the negative log of the dose of BK, the dose which causes half maximal contraction of the tissues, is commonly known as the pD2 value. The pD2 value for bradykinin is 7.9 on the rat uterus and 7.4 on the guinea pig ileum.

rat blood pressure = assay: effects on blood pressure in the anesthetized rat (RBP), intraaortic and intravenous bolus; assay type: in vivo
Experimental: The in vivo effects of bradykinin antagonists on blood pressure in the anesthetized rat are determined according to the assay described by Roblero, Ryan and Stewart (Res. Commun. Pathol. Pharmacol. 6:207, 1973). The antagonists also produce inhibition of the bradykinin response when injected as a bolus admixture of bradykinin plus antagonist by either the ia or iv route of administration.

[1] = rat blood pressure, intraaortic bolus
[2] = rat blood pressure, intravenous bolus

**Q.** `CC[C@H](C)[C@H](NC(=O)[C@H](CCCNC(=N)N)NC(=O)[C@H](Cc1cccs1)NC(=O)[C@@H](Cc1ccccc1)NC(=O)[C@H](CO)NC(=O)[C@H](Cc1cccs1)NC(=O)CNC(=O)[C@@H]1C[C@@H](O)CN1C(=O)[C@@H]1CCCN1C(=O)[C@@H](N)CCCNC(=N)N)C(=O)N[C@@H](Cc1ccc(O)cc1)C(=O)O` [Example 67, Arg-Pro-Hyp-Gly-Thi-Ser-DPhe-Thi-Arg-Ile-Tyr] (H-RP[Hyp]G[2Thi]S[dF][2Thi]RIY-OH) was tested. Which “pA2 /RUT: agonist potency as percent of BK potency” value (isolated rat uterus; isolated rat uterus) did it give?
**A.** 0.06%

**Q.** With `CC[C@@H](C)[C@@H](NC(=O)[C@H](CCCNC(=N)N)NC(=O)[C@H](Cc1cccs1)NC(=O)[C@@H](Cc1ccccc1)NC(=O)[C@H](CO)NC(=O)[C@H](Cc1cccs1)NC(=O)CNC(=O)[C@@H]1C[C@@H](O)CN1C(=O)[C@@H]1CCCN1C(=O)[C@@H](N)CCCNC(=N)N)C(=O)N[C@@H](Cc1ccc(O)cc1)C(=O)O` [Example 73, Arg-Pro-Hyp-Gly-Thi-Ser-DPhe-Thi-Arg-DIle-Tyr] (H-RP[Hyp]G[2Thi]S[dF][2Thi]R[dI]Y-OH) as the compound, how does the “pA2 /RUT: agonist potency as percent of BK potency” value (isolated rat uterus; isolated rat uterus) read?
**A.** 0.04%

**Q.** With `CC[C@@H](C)[C@@H](NC(=O)[C@H](CCCNC(=N)N)NC(=O)[C@H](Cc1ccccc1)NC(=O)[C@@H](Cc1ccccc1)NC(=O)[C@H](CO)NC(=O)[C@H](Cc1ccccc1)NC(=O)CNC(=O)[C@@H]1CCCN1C(=O)[C@@H]1CCCN1C(=O)[C@@H](N)CCCNC(=N)N)C(=O)N[C@@H](Cc1ccc(O)cc1)C(=O)O` [Example 69, Arg-Pro-Pro-Gly-Phe-Ser-DPhe-Phe-Arg-DIle-Tyr] (H-RPPGFS[dF]FR[dI]Y-OH) as the compound, how does the “RBP-IA: agonist potency as percent of BK potency” value (rat blood pressure; [1]) read?
**A.** 0.3%

**Q.** And the “RBP-IV: agonist potency as percent of BK potency” value (rat blood pressure; [2])?
**A.** 2%

**Q.** And the “% DESTR (metabolic breakdown of BK-like agonists in RBP assay)” value (rat blood pressure; relative to BK = 100%)?
**A.** 75%

**Q.** How did the “pA2 /RUT (antagonist potency)” value (isolated rat uterus) turn out when `N=C(N)NCCC[C@@H](N)C(=O)N[C@H](Cc1ccc2ccccc2c1)C(=O)N1CCC[C@H]1C(=O)N1CCC[C@H]1C(=O)NCC(=O)N[C@@H](Cc1cccs1)C(=O)N[C@@H](CO)C(=O)N[C@H](Cc1ccccc1)C(=O)N[C@@H](Cc1cccs1)C(=O)N[C@@H](CCCNC(=N)N)C(=O)O` [Example 23, DArg-DNal-Pro-Pro-Gly-Thi-Ser-DPhe-Thi-Arg] (H-[dR][d2Nal]PPG[2Thi]S[dF][2Thi]R-OH) was run?
**A.** 5.8

**Q.** `N=C(N)NCCC[C@H](NC(=O)[C@H](Cc1ccccc1)NC(=O)[C@@H](Cc1ccccc1)NC(=O)[C@H](CO)NC(=O)[C@H](Cc1ccccc1)NC(=O)CNC(=O)[C@@H]1CCCN1C(=O)[C@@H]1CCCN1C(=O)[C@@H](N)CCCNC(=N)N)C(=O)O` [Example 1, Arg-Pro-Pro-Gly-Phe-Ser-DPhe-Phe-Arg] (H-RPPGFS[dF]FR-OH) was tested. Which “pA2 /RUT (antagonist potency)” value (isolated rat uterus; isolated rat uterus, number of tissues in parentheses) did it give?
**A.** 5.0

**Q.** How did the “% DESTR (metabolic breakdown of BK-like agonists in RBP assay)” value (rat blood pressure; rat, in vivo) turn out when `N=C(N)NCCC[C@H](NC(=O)[C@H](CCCCN)NC(=O)[C@@H](N)CCCCN)C(=O)N1CCC[C@H]1C(=O)N1CCC[C@H]1C(=O)NCC(=O)N[C@@H](Cc1cccs1)C(=O)N[C@@H](CO)C(=O)N[C@H](Cc1ccccc1)C(=O)N[C@@H](Cc1cccs1)C(=O)N[C@H](CCCNC(=N)N)C(=O)O` [Example 44, Lys-Lys-Arg-Pro-Pro-Gly-Thi-Ser-DPhe-Thi-DArg] (H-KKRPPG[2Thi]S[dF][2Thi][dR]-OH) was run?
**A.** 0%

**Q.** What about the “RBP-IA: agonist potency as percent of BK potency” value (rat blood pressure; rat, in vivo) of the same compound?
**A.** 0.2%

**Q.** And the “RBP-IV: agonist potency as percent of BK potency” value (rat blood pressure; rat, in vivo, iv)?
**A.** 14%

**Q.** What does the source list for `CC[C@@H](C)[C@@H](NC(=O)[C@H](CCCNC(=N)N)NC(=O)[C@H](Cc1cccs1)NC(=O)[C@@H](Cc1ccccc1)NC(=O)[C@H](CO)NC(=O)[C@H](Cc1cccs1)NC(=O)CNC(=O)[C@@H]1CCCN1C(=O)[C@@H]1CCCN1C(=O)[C@@H](N)CCCNC(=N)N)C(=O)N[C@@H](Cc1ccc(O)cc1)C(=O)O` [Example 71, Arg-Pro-Pro-Gly-Thi-Ser-DPhe-Thi-Arg-DIle-Tyr] (H-RPPG[2Thi]S[dF][2Thi]R[dI]Y-OH)?
**A.** RBP-IA: agonist potency as percent of BK potency (rat blood pressure; [1]): 0.2%; RBP-IV: agonist potency as percent of BK potency (rat blood pressure; [2]): 2%; % DESTR (metabolic breakdown of BK-like agonists in RBP assay) (rat blood pressure; relative to BK = 100%): 55%
